Where a name gives a salt, the structure may show the parent alone.

In this assay the test system is 293T-HRE-GFP-luc cells. Description: Cell-based reporter assay for IC50 determinations (HRE-luciferase, hypoxia). The following applies: 6 h, 6 hrs hypoxia (1% O2), luminescence. The method, boiled down: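 IC50s come from four-parameter logistic fits of luminescence. Compounds in 1:3 DMSO series were added to 293T-HRE-GFP-luc cells, 30 min normoxia preceding 6 hrs at 1% O2, 37° C; HRE-luciferase signal was then measured with Steadylite Plus reagent.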
The compound `CNC(=O)c1cccc(Cn2c(C)ccc(-c3nc(-c4ccc(OC(F)(F)F)cc4)no3)c2=O)c1` [Example 23, N-Methyl-3-((6-methyl-2-oxo-3-(3-(4-(trifluoromethoxy)phenyl)-1,2,4-oxadiazol-5-yl)pyridin-1(2H)-yl)methyl)benzamide] showed a 50% inhibitory concentration (IC50) of 100 to 1000 nM.

Consider `O=c1ccc(-c2nc(-c3ccc(OC(F)(F)F)cc3)no2)cn1Cc1cccc(N2CCC(O)CC2)c1` [Example 58, 1-(3-(4-Hydroxypiperidin-1-yl)benzyl)-5-(3-(4-(trifluoromethoxy)phenyl)-1,2,4-oxadiazol-5-yl)pyridin-2(1H)-one], for which the half-inhibitory concentration (IC50) was less than 100 nM. The compound `COCCCNc1cc(Cn2c(C)ccc(-c3nc(-c4ccc(OC(F)(F)F)cc4)no3)c2=O)ccn1` [Example 17, 2-((3-Methoxypropyl)amino)-4-((6-methyl-2-oxo-3-(3-(4-(trifluoromethoxy)phenyl)-1,2,4-oxadiazol-5-yl)pyridin-1(2H)-yl)methyl)pyridin-1-ium trifluoroacetate] returned an IC50 of 100 to 1000 nM. To `COCCOc1cccc(Cn2cc(-c3noc(-c4cnc(N5CCCC5)nc4)n3)ccc2=O)c1` [Example 238, 1-{[3-(2-methoxyethoxy)phenyl]methyl}-5-{5-[2-(pyrrolidin-1-yl)pyrimidin-5-yl]-1,2,4-oxadiazol-3-yl}-1,2-dihydropyridin-2-one] belongs less than 100 nM; to `N#Cc1cccc(Cn2nc(-c3nc(-c4ccc(OC(F)(F)F)cc4)no3)ccc2=O)c1` [Example 120, 3-((6-oxo-3-(3-(4-(trifluoromethoxy)phenyl)-1,2,4-oxadiazol-5-yl)pyridazin-1(6H)-yl)methyl)benzonitrile], less than 100 nM; to `O=c1ccc(-c2nc(-c3ccc(OC(F)(F)F)cc3)no2)cn1Cc1cccc(CCCO)c1` [Example 48, 1-{[3-(3-Hydroxypropyl)phenyl]methyl}-5-{3-[4-(trifluoromethoxy)phenyl]-1,2,4-oxadiazol-5-yl}-1,2-dihydropyridin-2-one], less than 100 nM.

The compound `CN1CCN(C(=O)Cc2cccc(Cn3cc(-c4nc(-c5ccc(OC(F)(F)F)cc5)no4)ccc3=O)c2)CC1` [Example 156, 1-({3-[2-(4-methylpiperazin-1-yl)-2-oxoethyl]phenyl}methyl)-5-{3-[4-(trifluoromethoxy)phenyl]-1,2,4-oxadiazol-5-yl}-1,2-dihydropyridin-2-one] showed a half-inhibitory concentration (IC50) of less than 100 nM. For `O=c1ccc(-c2nc(-c3ccc(OC(F)(F)F)cc3)no2)nn1Cc1ccnc(N2CCNCC2)c1` [Example 1] the value was less than 100 nM. Compound `O=c1ccc(-c2nc(-c3ccc(OC(F)(F)F)cc3)no2)cn1Cc1ccc(F)c(N2CCC(O)CC2)c1` [Example 139, 1-{[4-fluoro-3-(4-hydroxypiperidin-1-yl)phenyl]methyl}-5-{3-[4-(trifluoromethoxy)phenyl]-1,2,4-oxadiazol-5-yl}-1,2-dihydropyridin-2-one] had a half-inhibitory concentration (IC50) of less than 100 nM. As to `Cc1ccc(-c2nc(-c3ccc(OC(F)(F)F)cc3)no2)c(=O)n1Cc1cccc(C(N)=O)c1` [Example 22, 3-((6-Methyl-2-oxo-3-(3-(4-(trifluoromethoxy)phenyl)-1,2,4-oxadiazol-5-yl)pyridin-1(2H)-yl)methyl)benzamide], the concentration for half-maximal inhibition (IC50) fell in the range of 100 to 1000 nM.

The compound `CC(C)(O)c1cccc(Cn2cc(-c3noc(-c4ccc(S(=O)(=O)C(F)(F)F)cc4)n3)ccc2=O)c1` [Example 213, 1-{[3-(2-hydroxypropan-2-yl)phenyl]methyl}-5-[5-(4-trifluoromethanesulfonylphenyl)-1,2,4-oxadiazol-3-yl]-1,2-dihydropyridin-2-one] registered an IC50 of less than 100 nM. In the case of `COCCOc1cccc(Cn2cc(-c3noc(-c4ccc(OC(C)C)cc4)n3)ccc2=O)c1` [Example 196, 1-{[3-(2-methoxyethoxy)phenyl]methyl}-5-{5-[4-(propan-2-yloxy)phenyl]-1,2,4-oxadiazol-3-yl}-1,2-dihydropyridin-2-one], the IC50 was in the range of 100 to 1000 nM. `CN(C)C(=O)Cc1cccc(Cn2cc(-c3nc(-c4ccc(OC(F)(F)F)cc4)no3)ccc2=O)c1` [Example 157, N,N-dimethyl-2-{3-[(2-oxo-5-{3-[4-(trifluoromethoxy)phenyl]-1,2,4-oxadiazol-5-yl}-1,2-dihydropyridin-1-yl)methyl]phenyl}acetamide] registered an IC50 of less than 100 nM. To `Cc1ccc(-c2nc(-c3ccc(OC(F)(F)F)cc3)no2)c(=O)n1Cc1cccc(N2CCN(C)CC2)c1` [Example 6, 1-Methyl-4-(3-((6-methyl-2-oxo-3-(3-(4-(trifluoromethoxy)phenyl)-1,2,4-oxadiazol-5-yl)pyridin-1(2H)-yl)methyl)phenyl)piperazin-1-ium trifluoroacetate] belongs less than 100 nM; to `COc1cccc(Cn2c(C)ccc(-c3nc(-c4ccc(OC(F)(F)F)cc4)no3)c2=O)c1` [Example 265, 1-[(3-methoxyphenyl)methyl]-6-methyl-3-{3-[4-(trifluoromethoxy)phenyl]-1,2,4-oxadiazol-5-yl}-1,2-dihydropyridin-2-one], 100 to 1000 nM. To `COCCOc1cccc(Cn2cc(-c3noc(-c4ccc(OC)cc4)n3)ccc2=O)c1` [Example 191, 1-{[3-(2-methoxyethoxy)phenyl]methyl}-5-[5-(4-methoxyphenyl)-1,2,4-oxadiazol-3-yl]-1,2-dihydropyridin-2-one] belongs less than 100 nM; to `O=c1ccc(-c2nc(-c3ccc(OC(F)(F)F)cc3)no2)cn1Cc1cccc(N2CCNCC2)c1` [Example 59, 1-(3-(piperazin-1-yl)benzyl)-5-(3-(4-(trifluoromethoxy)phenyl)-1,2,4-oxadiazol-5-yl)pyridin-2(1H)-one], less than 100 nM. To `CS(=O)(=O)C1CCN(c2cccc(Cn3nc(-c4nc(-c5ccc(OC(F)(F)F)cc5)no4)ccc3=O)c2)CC1` [Example 173, 2-{[3-(4-methanesulfonylpiperidin-1-yl)phenyl]methyl}-6-{3-[4-(trifluoromethoxy)phenyl]-1,2,4-oxadiazol-5-yl}-2,3-dihydropyridazin-3-one] belongs less than 100 nM; to `O=c1ccc(-c2nc(-c3ccc(OC(F)(F)F)cc3)no2)nn1Cc1ccc(F)c(N2CCOCC2)c1` [Example 111, 2-(4-fluoro-3-morpholinobenzyl)-6-(3-(4-(trifluoromethoxy)phenyl)-1,2,4-oxadiazol-5-yl)pyridazin-3(2H)-one], less than 100 nM; to `COC(=O)Cc1cccc(Cn2nc(-c3nc(-c4ccc(OC(F)(F)F)cc4)no3)ccc2=O)c1` [Example 29, Methyl 2-{3-[(6-oxo-3-{3-[4-(trifluoromethoxy)phenyl]-1,2,4-oxadiazol-5-yl}-1,6-dihydropyridazin-1-yl)methyl]phenyl}acetate], less than 100 nM. As to `CC(C)Oc1ccc(-c2nnc(-c3ccc(=O)n(Cc4cccc(N5CCC(S(C)(=O)=O)CC5)c4)c3)o2)cc1` [Example 264, 1-{[3-[4-methanesulfonylpiperidin-1-yl)phenyl]methyl}-5-{5-[4-(propan-2-yloxy)phenyl]-1,3,4-oxadiazol-2-yl}-1,2-dihydropyridin-2-one], the IC50 lay within 100 to 1000 nM. In turn, `COCCOc1cccc(Cn2cc(-c3nnc(-c4ccc(OC(F)(F)F)cc4)o3)ccc2=O)c1` [Example 102] displayed a concentration for half-maximal inhibition (IC50) of less than 100 nM.

As to `CC(C)Oc1ccc(-c2nnc(-c3ccc(=O)n(Cc4cccc(C(C)(C)O)c4)c3)o2)cc1` [Example 263, 1-{[3-(2-hydroxypropan-2-yl)phenyl]methyl}-5-{5-[4-(propan-2-yloxy)phenyl]-1,3,4-oxadiazol-2-yl}-1,2-dihydropyridin-2-one], the IC50 lay in the range of 100 to 1000 nM. To `COCCOc1cccc(Cn2cc(-c3noc(-c4ccc(C(=O)N(C)C)cc4)n3)ccc2=O)c1` [Example 218, 4-[3-(1-{[3-(2-methoxyethoxy)phenyl]methyl}-6-oxo-1,6-dihydropyridin-3-yl)-1,2,4-oxadiazol-5-yl]-N,N-dimethylbenzamide] belongs 100 to 1000 nM; to `COCCOc1cccc(Cn2cc(-c3noc(-c4ccc(S(=O)(=O)CCOC)cc4)n3)ccc2=O)c1` [Example 237, 5-{5-[4-(2-methoxyethanesulfonyl)phenyl]-1,2,4-oxadiazol-3-yl}-1-{[3-(2-methoxyethoxy)phenyl]methyl}-1,2-dihydropyridin-2-one], 100 to 1000 nM; to `COCCOc1cccc(Cn2cc(-c3noc(-c4ccc(C5CCOCC5)cc4)n3)ccc2=O)c1` [Example 74, 1-(3-(2-Methoxyethoxy)benzyl)-5-(5-(4-(tetrahydro-2H-pyran-4-yl)phenyl)-1,2,4-oxadiazol-3-yl)pyridin-2(1H)-one], less than 100 nM. To `CCS(=O)(=O)c1cccc(Cn2cc(-c3nc(-c4ccc(OC(F)(F)F)cc4)no3)ccc2=O)c1` [Example 161, 1-{[3-(ethanesulfonyl)phenyl]methyl}-5-{3-[4-(trifluoromethoxy)phenyl]-1,2,4-oxadiazol-5-yl}-1,2-dihydropyridin-2-one] belongs less than 100 nM; to `COCCOc1cccc(Cn2cc(-c3noc(-c4ccc(COC)cc4)n3)ccc2=O)c1` [Example 227, 1-{[3-(2-methoxyethoxy)phenyl]methyl}-5-{5-[4-(methoxymethyl)phenyl]-1,2,4-oxadiazol-3-yl}-1,2-dihydropyridin-2-one], less than 100 nM; to `COCCOc1cccc(Cn2cc(-c3noc(-c4ccc5c(c4)OCO5)n3)ccc2=O)c1` [Example 223, 5-[5-(2H-1,3-benzodioxol-5-yl)-1,2,4-oxadiazol-3-yl]-1-{[3-(2-methoxyethoxy)phenyl]methyl}-1,2-dihydropyridin-2-one], 100 to 1000 nM. For `CN1CCN(c2cc(Cn3nc(-c4nc(-c5ccc(OC(F)(F)F)cc5)no4)ccc3=O)ccn2)CC1` [Example 2] the value was less than 100 nM; for `CN1CCN(c2cccc(Cn3cccc(-c4nc(-c5ccc(OC(F)(F)F)cc5)no4)c3=O)c2)CC1` [Example 270, 1-{[3-(4-methylpiperazin-1-yl)phenyl]methyl}-3-{3-[4-(trifluoromethoxy)phenyl]-1,2,4-oxadiazol-5-yl}-1,2-dihydropyridin-2-one], less than 100 nM.

For orientation: IC50 means the concentration that gives 50% inhibition. A low value points to inhibition by little substance.

Source of the values: patent US20140073634A1 (Institute For Applied Cancer Science/The University of …, priority 2012, published 2014).
